Data taken from patent publication US10961202B2, “Bis-benzimidazole compounds and methods of using the same” (THE SCRIPPS RESEARCH INSTITUTE, priority 2017, dated 2021).

The compounds below were run on r(CUG)12-MBNL1 complex (assay: Inhibition of the r(CUG)12-MBNL1 complex measured by TR-FRET). Details: Table L; 80 nM RNA, 60 nM MBNL1-His6.
Type: biochemical

| SMILES | IC50 [µM] |
| --- | --- |
| N=C(N)Nc1ccc(-c2nc3cc(-c4ccc5[nH]c(-c6ccc(NC(=N)N)cc6)nc5c4)ccc3[nH]2)cc1 [Compound 96] | 4.6 |
| Cn1c(-c2ccc(-c3nc4cc(Br)ccc4n3C)cc2)nc2cc(Br)ccc21 [Compound 89, 1,4-bis(5-bromo-1-methyl-1H-benzo[d]imidazol-2-yl)benzene] | > 200 |
| CN(C)CCOC(=O)c1ccc2nc(-c3ccc(-c4nc5ccc(C(=O)OCCN(C)C)cc5[nH]4)cc3)[nH]c2c1 [Compound 54, bis(2-(dimethylamino)ethyl) 2,2′-(1,4-phenylene)bis(1H-benzo[d]imidazole-6-carboxylate)] | 3.6 |
| Cn1c(-c2ccc(-c3nc4ccc(NC(=N)N)cc4n3C)cc2)nc2cc(NC(=N)N)ccc21 [Compound 87] | > 200 |
| Cn1c(-c2ccc(N)cc2)nc2cc(-c3ccc4c(c3)nc(-c3ccc(N)cc3)n4C)ccc21 [Compound 122, 1,1′-dimethyl-2,2′-bis(4-aminophenyl)-1H,1′H-5,5′-bibenzimidazole] | 24 |
| CN(C)CCN(C)C(=O)c1ccc2nc(-c3ccc(-c4nc5ccc(C(=O)N(C)CCN(C)C)cc5[nH]4)cc3)[nH]c2c1 [Compound 68] | > 200 |

The next lines start with the values.

| IC50 [µM] | SMILES |
| --- | --- |
| 52.1 | COC(=O)CCC(=O)NCCN(C)CCNC(=O)c1ccc2nc(-c3ccc(-c4nc5ccc(C(=O)NCCN(C)C)cc5[nH]4)cc3)[nH]c2c1 [Compound 72] |
| 15.2 | N=C(N)c1ccc(-c2nc3cc(-c4ccc5[nH]c(-c6ccc(C(=N)N)cc6)nc5c4)ccc3[nH]2)cc1 [Compound 99] |
| 6.2 | CN(C)CCCNC(=O)c1ccc2nc(-c3ccc(-c4nc5ccc(C(=O)NCCN(C)C)cc5[nH]4)cc3)[nH]c2c1 [Compound 35, N-(2-(dimethylamino)ethyl)-2-(4-(6-((3-(dimethylamino)propyl)carbamoyl)-1H-benzo[d]imidazol-2-yl)phenyl)-1H-benzo[d]imidazole-6-carboxamide] |
| > 200 | CON(C)Cc1ccc2nc(-c3ccc(-c4nc5ccc(CNCCN(C)C)cc5[nH]4)cc3)[nH]c2c1 [Compound 62] |
| 12.3 | CNCCNC(=O)c1ccc2nc(-c3ccc(-c4nc5ccc(C(=O)NCCN(C)C)cc5[nH]4)cc3)[nH]c2c1 [Compound 27, N-(2-(dimethylamino)ethyl)-2-(4-(6-((2-(methylamino)ethyl)carbamoyl)-1H-benzo[d]imidazol-2-yl)phenyl)-1H-benzo[d]imidazole-6-carboxamide] |

Same assay, conditions: Table M; 80 nM RNA, 60 nM MBNL1-His6

| SMILES | IC50 [µM] |
| --- | --- |
| c1cc2nc(-c3ccc(-c4nc5ccc(OCCN6CCCC6)cc5[nH]4)cc3)[nH]c2cc1OCCN1CCCC1 [Compound 203] | 103 |
| CN1CCC(Oc2ccc(-c3nc4cc(-c5ccc6[nH]c(-c7ccc(OC8CCN(C)CC8)cc7)nc6c5)ccc4[nH]3)cc2)CC1 [Compound 335] | 22.6 |
| N#Cc1ccc(Oc2ccc3nc(-c4ccc(-c5nc6ccc(Oc7ccc(C#N)cc7)cc6[nH]5)cc4)[nH]c3c2)cc1 [Compound 229, 4,4′-((2,2′-(1,4-phenylene)bis(1H-benzo[d]imidazole-6,2-diyl))bis(oxy))dibenzonitrile] | > 200 |

The next lines start with the values.

| IC50 [µM] | SMILES |
| --- | --- |
| 58.9 | CCN(CC)CCCOc1ccc2nc(-c3ccc(-c4nc5ccc(OCCCN(CC)CC)cc5[nH]4)cc3)[nH]c2c1 [Compound 187] |
| 24.1 | CN(C)CCNC(=O)COc1ccc2nc(-c3ccc(-c4nc5ccc(OCC(=O)NCCN(C)C)cc5[nH]4)cc3)[nH]c2c1 [Compound 284, 2,2′-((1,4-phenylenebis(1H-benzo[d]imidazole-2,6-diyl))bis(oxy))bis(N-(2-(dimethylamino)ethyl)acetamide)] |
| 93.6 | CN1CC[C@@H](Oc2ccc3nc(-c4ccc(-c5nc6ccc(O)cc6[nH]5)cc4)[nH]c3c2)C1 [Compound 182] |
| 31.3 | CN(C)CCCOc1ccc2nc(-c3ccc(-c4nc5ccc(OCCCN(C)C)c(F)c5[nH]4)cc3)[nH]c2c1F [Compound 280] |
| > 200 | CN(C)CCCOc1ccc2nc(-c3ccc(-c4nc5ccc(C(=O)OC(C)(C)C)cc5[nH]4)cc3)[nH]c2c1 [Compound 254, tert-butyl 2-(4-(6-(3-(dimethylamino)propoxy)-1H-benzo[d]imidazol-2-yl)phenyl)-1H-benzo[d]imidazole-6-carboxylate] |
